Assay results as given in patent US20200291100A1, “TREATMENT OF AGE-RELATED AND MITOCHONDRIAL DISEASES BY INHIBITION OF HIF-1 ALPHA FUNCTION” (President and Fellows of Harvard College, priority 2012, published 2020).

Test system: SIRT1 KO mice
Assay: NMN treatment of inducible SIRT1 KO mice
Format: in vivo, mouse
Details: skeletal muscle of SIRT1 KO versus WT mice
Protocol: Whole body adult-inducible SIRT1 knockout mice were treated with tamoxifen for 5 weeks and the efficiency of deletion in DNA from tail samples was determined by PCR. Animals were then maintained on regular diet for 4 months. For the fasting experiments, mice were fasted for 16 hrs prior to sacrifice. All animal care followed the guidelines and was approved by the Institutional Animal Care and Use Committees (IACUCs) at Harvard
The inducible SIRT1 KO mouse allowed the testing of the involvement of SIRT1 in the effects of NMN in vivo.
C57BL/6J mice of 6, 22, or 30 months of age were obtained from the National Institutes of Aging mouse aging colony. Additionally 22 months old caloric restricted mice were also obtained from the National Institutes of Aging mouse aging colony. EGLN1 KO, SIRT1 KO and SIRT1 OE mice were generated as previously described (Minamishima et al., 2008; Price et al., 2012). […]
RNA from skeletal muscle tissue and C2C12 cells were extracted with RNeasy mini kit (Qiagen) according to the instructions and quantified using the NanoDrop 1000 spectrophotometer (Thermo Scientific). cDNA was synthesized with the iSCRIP cDNA synthesis kit (BioRad) using 600 ng of RNA. Quantitative RT-PCR reactions were performed using 1 μM of primers and LightCycler® 480 SYBR Green Master (Roche) on an LightCycler® 480 detection system (Roche). […]

NC(=O)c1ccc[n+]([C@@H]2O[C@H](COP(=O)([O-])O)[C@@H](O)[C@H]2O)c1 [NMN, nicotinamide mononucleotide]
ability of NMN to induce mitochondrially-encoded genes (qPCR): lost in animals lacking SIRT1
ability of NMN to improve mitochondrial function (mitochondrial membrane potential (FIG. 10I)): lost in animals lacking SIRT1
